Entries after “also recorded” stand apart in the source; their conditions may differ. Where two headings read alike, the source gives them in different places.
Legend:
[1] = test system: Aβ42 production; experiment: Aβ42 production in APP695-transfected H4 cells; format: cell-based, human
Protocol: In a tertiary screen, Aβ production, sAPP production, and toxicity in a human H4 neuroglioma cell line that expressed APP are examined for all FDA-approved NSAIDs and novel NSAIDs that selectively reduce Aβ42 levels. Three doses of each NSAID are tested. The first is a dose that is expected to cause maximum reduction of Aβ42 levels. The second dose is one that reduces Aβ42 levels by 50% of the maximum value, while the third dose is one that reduces Aβ42 levels by 10-20% of the maximum value.

[2] = test system: Aβ42 secretion; experiment: Primary in vitro screen, CHO-APP695NL,I,his cells, end-specific Aβ40 and Aβ42 ELISAs; format: cell-based, Chinese hamster; conditions: for activity at 100 µM / activity at 10 µM: Cricetulus griseus, 6 h; for selective reduction of Aβ42 levels in the primary screen: 10 μM or 100 μM, classification on a 20% change
Protocol: Aβ40 and Aβ42 levels in culture supernatants were determined for each time points using ELISA.
In a primary screen, the effects of NSAIDs on Aβ42 secretion by a CHO cell line that expressed APP(CHO-APP695NL,I,his) were examined. Duplicate cell cultures were treated with (a) a vehicle, (b) 10 μM of NSAID, or (c) 100 μM of NSAID.
To determine Aβ40 and Aβ42 levels, six-hour culture supernatants taken from cells grown in a single well of a twenty-four-well plate were used in end-specific Aβ40 and Aβ42 ELISAs (Suzuki, et al. (1994) Sci 264:[…]). Aβ40 and Aβ42 levels of cultures treated with NSAID were compared with those of cultures treated with the vehicle alone. […] NSAIDs that caused either selective reduction of Aβ42 levels or reduction in both Aβ40 and Aβ42 levels are subjected to a secondary screen.

[3] = plasma concentration of the drug; cited from earlier work
[4] = test system: Aβ42 secretion; experiment: Non-selective and selective COX-inhibitors tested for effect on Aβ42 levels in cell cultures (Table 1 summary); format: cell-based; conditions: cell cultures, cell line and concentration not stated
Protocol: All measurements were performed in duplicate.
Aβ40 and Aβ42 levels in cell culture supernatants were analyzed using ELISA. Aβ42/Aβ40 ratios and total Aβ levels were normalized to values obtained from DMSO-treated cultures. […] NSAIDs were verified using NMR and mass spectrometry.

[5] = test system: brain Aβ42 levels in Tg2576 mice; experiment: Acute oral dosing of three-month-old Tg2576 mice, brain Aβ ELISA; format: in vivo, mouse; conditions: for brain Aβ42 levels: three-month old Tg2576 mice, 100 mg/kg/day orally for three days, compared with vehicle
Protocol: NSAIDs were dissolved in an appropriate vehicle. Dimethyl sulfoxide (DMSO), ethanol, and ethyl acetate are some examples. The NSAID solution was mixed with Kool-Aid and administered orally using a medicine dropper. […] At two hours after the final doses were administered, animals were sacrificed, and SDS soluble Aβ40 and Aβ42 were analyzed using ELISA.
Three month old mice have high levels of soluble Aβ in the brain but no Aβ deposition (see Hsiao et al. (1996) Science 274:99-102). […] Brain levels of SDS-soluble Aβ40 and Aβ42 were measured using ELISA.
Compounds were administered orally.

[6] = 10 μM, six-hour culture supernatants
[7] = 100 μM, six-hour culture supernatants, read-out: % Control % Aβ42
[8] = 100 μM, six-hour culture supernatants, read-out: % Control Aβ40
[9] = 100 μM, six-hour culture supernatants, read-out: % Control Aβ42
[10] = 10 μM, six-hour culture supernatants, read-out: % Control % Aβ42
[11] = 10 μM, six-hour culture supernatants, read-out: % Control Aβ40
[12] = 10 μM, six-hour culture supernatants, read-out: % Control Aβ42
[13] = 100 μM, six-hour culture supernatants
[14] = Tg2576 mice, three month-old, 50 mg/kg/day orally for three days, SDS-soluble, mean ± SD
[15] = Tg2576 mice, treatment for three days, 50 mg/kg/day

CC(C(=O)O)c1ccc(-c2ccccc2)c(F)c1 (racemic) [Flurbiprofen, flurbiprofen]
levels of Aβ40 production [1]: not altered
Aβ42 levels lowered by ([1]; 100 μM): 50%

CCCCC#CCSc1ccccc1OC(C)=O [APHS]
% Control % Aβ42 [2, 6]: 178%
% Control Aβ40 [2, 6]: 50%
% Control Aβ42 [2, 6]: 114%

COc1ccc2c(c1)c(CC(=O)OCC(=O)O)c(C)n2C(=O)c1ccc(Cl)cc1 [Acemetacin]
activity at 100 µM [2, 7]: 93%
activity at 100 µM [2, 8]: 110%
activity at 100 µM [2, 9]: 101%

CN(C)CCCOc1nn(Cc2ccccc2)c2ccccc12 [Benzydamine]
activity at 100 µM [2, 7]: 132%
activity at 100 µM [2, 8]: 90%
activity at 100 µM [2, 9]: 128%

CC(C(=O)O)c1ccc2c(c1)[nH]c1ccc(Cl)cc12 (centres unmarked) [Carprofen]
activity at 100 µM [2, 7]: 86%
activity at 100 µM [2, 8]: 58%
activity at 100 µM [2, 9]: 48%

Cc1ccc(-c2cc(C(F)(F)F)nn2-c2ccc(S(N)(=O)=O)cc2)cc1 [Celecoxib, celecoxib]
Plasma [3]: 0.015 µM

O=C(O)Cc1ccccc1Nc1c(Cl)cccc1Cl [Diclofenac]
total Aβ levels [4]: did not affect
Plasma [3]: 6.1 µM
activity at 100 µM [2, 7]: 100%
activity at 100 µM [2, 8]: 88%
activity at 100 µM [2, 9]: 87%

CCc1cccc2c3c([nH]c12)C(CC)(CC(=O)O)OCC3 (centres unmarked) [Etodolac]
activity at 100 µM [2, 7]: 120%
activity at 100 µM [2, 8]: 85%
activity at 100 µM [2, 9]: 109%

O=C(O)CCC(=O)c1ccc(-c2ccccc2)cc1 [Fenbufen]
activity at 100 µM [2, 7]: 107%
activity at 100 µM [2, 8]: 100%
activity at 100 µM [2, 9]: 109%

CC(C(=O)O)c1cccc(Oc2ccccc2)c1 (centres unmarked) [Fenoprofen, fenoprofen]
activity at 100 µM [2, 7]: 63%
activity at 100 µM [2, 8]: 102%
activity at 100 µM [2, 9]: 60%

O=C(O)c1ccccc1Nc1cccc(C(F)(F)F)c1 [Flufenamic Acid, flufenamic acid]
selective reduction of Aβ42 levels in the primary screen [2]: selectively reduced Aβ42 levels
activity at 10 µM [2, 10]: 70%
activity at 10 µM [2, 11]: 99%
activity at 10 µM [2, 12]: 64%

CC(C(=O)O)c1ccc(-c2ccccc2)c(F)c1 (centres unmarked) [Flurbiprofen, flurbiprofen]
brain Aβ42 levels [5]: lower Aβ42 levels
activity at 100 µM ([2]; read-out: % Control % Aβ42): 80%
activity at 100 µM ([2]; read-out: % Control Aβ40): 93%
activity at 100 µM ([2]; read-out: % Control Aβ42): 70%

Cc1ccc(C(C)C)cc2c(C)ccc1-2 [Guaiazulene]
activity at 100 µM [2, 7]: 156%
activity at 100 µM [2, 8]: 70%
activity at 100 µM [2, 9]: 124%

CC(C(=O)O)c1ccc(N2Cc3ccccc3C2=O)cc1 (centres unmarked) [Indoprofen]
activity at 100 µM [2, 7]: 107%
activity at 100 µM [2, 8]: 116%
activity at 100 µM [2, 9]: 126%

Cc1cc(NC(=O)C2=C(O)c3ccccc3S(=O)(=O)N2C)no1 [Isoixicam]
% Control % Aβ42 [2, 13]: 103%
% Control Aβ40 [2, 13]: 109%
% Control Aβ42 [2, 13]: 112%

CC(C(=O)O)c1cccc(C(=O)c2ccccc2)c1 (centres unmarked) [Ketoprofen]
activity at 100 µM [2, 7]: 117%
activity at 100 µM [2, 8]: 88%
activity at 100 µM [2, 9]: 107%

O=C(c1ccccc1)c1ccc2n1CCC2C(=O)O (centres unmarked) [Ketorlolac]
activity at 10 µM [2, 10]: 142%
activity at 10 µM [2, 11]: 84%
activity at 10 µM [2, 12]: 131%

Cc1ccc(Cl)c(Nc2ccccc2C(=O)O)c1Cl [Meclofenamic acid, meclofenamic acid]
Brain levels of Aβ40 [5, 14]: 2932 ± 289 fmol/gm
Brain levels of Aβ42 [5, 14]: 679 ± 343 fmol/gm
% Aβ42 in brain ([5]; Tg2576 mice, three month-old, 50 mg/kg/day orally for three days, mean ± SD): 18.6 ± 8.7 %
Aβ40 levels in the brain [5, 15]: no change
reduction in Aβ42 levels in the brain [5, 15]: approximately 30%
selective reduction of Aβ42 levels in the primary screen [2]: selectively reduced Aβ42 levels
selective reduction of Aβ42, time course ([2]; CHO-APP695NL,I,his cells treated for six, twelve, or twenty-four hours): detectable at six hours
activity at 10 µM [2, 10]: 37%
activity at 10 µM [2, 11]: 39%
activity at 10 µM [2, 12]: 13%

Cc1cccc(Nc2ccccc2C(=O)O)c1C [Mefenamic Acid, mefenamic acid]
selective reduction of Aβ42 levels in the primary screen [2]: selectively reduced Aβ42 levels
activity at 100 µM [2, 7]: 72%
activity at 100 µM [2, 8]: 116%
activity at 100 µM [2, 9]: 78%

Cc1cnc(NC(=O)C2=C(O)c3ccccc3S(=O)(=O)N2C)s1 [Meloxicam]
Plasma [3]: 15 µM
activity at 10 µM [2, 10]: 158%
activity at 10 µM [2, 11]: 64%
activity at 10 µM [2, 12]: 122%

O=C(O)c1cc([N+](=O)[O-])ccc1NCCCc1ccccc1 [NPPB, 5-nitro-2-(3-phenylpropylamino)benzoic acid]
activity at 10 µM [2, 10]: 66%
activity at 10 µM [2, 11]: 81%
activity at 10 µM [2, 12]: 48%

COc1ccc2cc(CCC(C)=O)ccc2c1 [Nabumetone]
activity at 100 µM [2, 7]: 70%
activity at 100 µM [2, 8]: 157%
activity at 100 µM [2, 9]: 103%

CN1C(C(=O)Nc2ccccn2)=C(O)c2ccccc2S1(=O)=O [Piroxicam]
activity at 100 µM [2, 7]: 75%
activity at 100 µM [2, 8]: 142%
activity at 100 µM [2, 9]: 101%

C[C@@H](C(=O)O)c1ccc(-c2ccccc2)c(F)c1 [R-flurbiprofen, (2R)-2-(2-Fluoro-1,1′-biphenyl-4-yl)propanoic acid]
brain Aβ42 levels ([5]; 100 mg/kg/day): more effective at lowering brain Aβ42 in this acute dosing paradigm than S-flurbiprofen; also recorded: lower Aβ42 levels
levels of Aβ40 production [1]: not altered
Aβ42 levels lowered by ([1]; 10 μM): 20%
Aβ42 levels lowered by ([1]; 100 μM): 49%

Oc1ccc(C=Cc2cc(O)cc(O)c2)cc1 [Resveratrol]
activity at 10 µM [2, 10]: 130%
activity at 10 µM [2, 11]: 75%
activity at 10 µM [2, 12]: 107%

C[C@H](C(=O)O)c1ccc(-c2ccccc2)c(F)c1 [S-flurbiprofen]
levels of Aβ40 production [1]: not altered
Aβ42 levels lowered by ([1]; 100 μM): 58%

COc1ccc(-n2nc(C(F)(F)F)cc2-c2ccc(Cl)cc2)cc1 [SC560]
activity at 10 µM ([2]; read-out: % Control % Aβ42): 227%
activity at 10 µM ([2]; read-out: % Control Aβ40): 47%
activity at 10 µM ([2]; read-out: % Control Aβ42): 166%

CC(C(=O)O)c1ccc(C(=O)c2cccs2)cc1 (centres unmarked) [Suprofen]
activity at 100 µM [2, 7]: 102%
activity at 100 µM [2, 8]: 126%
activity at 100 µM [2, 9]: 129%

CN1C(C(=O)Nc2ccccn2)=C(O)c2sccc2S1(=O)=O [Tenoxicam]
activity at 100 µM [2, 7]: 112%
activity at 100 µM [2, 8]: 80%
activity at 100 µM [2, 9]: 92%

Cc1c(Cl)cccc1Nc1ccccc1C(=O)O [Tolfenamic Acid, tolfenamic acid]
selective reduction of Aβ42 levels in the primary screen [2]: did not
activity at 100 µM [2, 7]: 110%
activity at 100 µM [2, 8]: 84%
activity at 100 µM [2, 9]: 95%
